Read-outs that look alike come from different tables or passages of the source.

Test [1] relates to C. perfringens. Format: cell-based, Clostridium perfringens.
Test [2] relates to C. perfringens. Format: cell-based, Clostridium perfringens. The source holds these as a separate data set.
In another test the test system is C. perfringens isolates. Format: cell-based, Clostridium perfringens.
For test [3], the system named is C. perfringens strain CP6. It is filed as in vivo, Ross x Ross broiler chickens. As to conditions: for Adjusted FCR: adjusted for mortality.
Test [4] has as its system C. perfringens strain CP6. It is filed as in vivo, Ross x Ross broiler chickens. The note with it: T3 BMD 55 gm/metric ton in feed, C. perfringens challenge; for Adjusted FCR: adjusted for mortality.
Where [5] appears, read: Day 0 to 14, T3 BMD 55 gm/metric ton, C. perfringens challenge.
[6] abbreviates: Day 0 to 22, T3 BMD 55 gm/metric ton, C. perfringens challenge.
Setting [7] is: Day 0 to 28, T3 BMD 55 gm/metric ton, C. perfringens challenge.
[8] abbreviates: T3 BMD 55 gm/metric ton, C. perfringens challenge, DOT 22.

Consider Clostridium phage vB_CpeP_ACP10, for which, in the test with C. perfringens [1], the “Cocktail MOI” value was 0.001 and the “Individual MOI” value is given as 0.1. The “Virulence Index” value with C. perfringens [2] came to 0.19.

Take Clostridium phage vB_CpeP_ACP11: in the test with C. perfringens [1], the “Cocktail MOI” value came out at 0.01 and the “Individual MOI” value turned out to be 0.1. Moreover, the “Virulence Index” value in the test on C. perfringens [2] is listed as 0.03.

As to Clostridium phage vB_CpeM_SMS460, in the test with C. perfringens isolates, the “Clostridium perfringens strains capable of being infected or lysed (host range, FIG. 2)” value was “ATCC 13124, Q143.CN7, JBCNJ055, Q100,CN13, Q159.4C, JBFR063, M030.1C, CP_UoA_CA_39, CP_UoA_CA_24, JBCNI056, JBCNC058, JBCNC056 and CP_UoA_CA_132”. Further, in the test with C. perfringens [1], the “Cocktail MOI” value is 0.001 and the “Individual MOI” value stood at 0.01. Further, the “Virulence Index” value in the test on C. perfringens [2] was 0.95.

Consider Clostridium phage vB_CpeS_RO96, for which, in the test on C. perfringens [1], the “Cocktail MOI” value turned out to be 0.01 and the “Individual MOI” value is on record as 0.01. Besides, in the test with C. perfringens [2], the “Virulence Index” value came to 0.67.

Consider Clostridium phage vB_CpeP_ACP8, for which, in the test with C. perfringens [1], the “Cocktail MOI” value is 0.001 and the “Individual MOI” value is given as 0.01. Besides, the “Virulence Index” value in the test on C. perfringens [2] is 0.92.

Clostridium phage vB_CpeM_ACP45: in the test with C. perfringens [1], the “Cocktail MOI” value amounted to 0.01 and the “Individual MOI” value amounted to 0.01. Moreover, in the test with C. perfringens [2], the “Virulence Index” value came out at 0.91.

In the case of Clostridium phage vB_CpeP_ACP22, in the test on C. perfringens [1], the “Cocktail MOI” value stood at 0.01 and the “Individual MOI” value was determined as 0.1. Besides, in the test on C. perfringens [2], the “Virulence Index” value was determined as 0.14.

Take “Bacitracin methylene disalicylate [Bacitracin Methylene Disalicylate (BMD)]”: the “Feed Intake” value in test [3] (setting [5]) was found to be 4.55A Kg/Cage; in test [3] (setting [6]), 10.47A Kg/Cage; in test [3] (setting [7]) it was 15.93A Kg/Cage; in test [4] (Day 0 to 14), 4.87A Kg/Cage; in test [4] (Day 0 to 22), 11.55AB Kg/Cage; in test [4] (Day 0 to 28), 16.095BC Kg/Cage. The “Non-Adjusted FCR” value was 1.353AB in test [3] (setting [5]); 1.403AB in test [3] (setting [6]); 1.483B in test [3] (setting [7]); 1.217AB in test [4] (Day 0 to 14); 1.662BC in test [4] (Day 0 to 22); 1.867BC in test [4] (Day 0 to 28). Also, the “Weight Gain” value in test [3] (setting [5]) is recorded as 0.338A kg; in test [3] (setting [6]), 0.776A kg; in test [3] (setting [7]) it was 1.154A kg; in test [4] (Day 0 to 14), 0.430A ^ kg; in test [4] (Day 0 to 22) it was 0.861AB kg; in test [4] (Day 0 to 28), 1.236AB kg. Moreover, the “Adjusted FCR” value in test [3] (setting [5]) is recorded as 1.353AB; in test [3] (setting [6]), 1.361AB; in test [3] (setting [7]), 1.453A; in test [4] (Day 0 to 14), 1.186AB; in test [4] (Day 0 to 22), 1.470AB; in test [4] (Day 0 to 28) it was 1.581A. Besides, the “Overall Mortality” value in test [3] (setting [7]) came to 3.33AB Percent; in test [4] (Day 0 to 28) it was 24.00AB Percent. Besides, the “Lesion Scores Dunn's All-Pairwise Comparisons Test” value was 13.83A in test [3] (setting [8]) and 33.00AB in test [4] (DOT 22). The “Lesion Scores Kruskal-Wallis One-Way AOV (Mean Rank)” value turned out to be 13.83 in test [3] (setting [8]) and 33.00 in test [4] (DOT 22). The “Lesion Scores Mean Score (Hofacre, 1998)” value was determined as 0.33A in test [3] (setting [8]) and 0.60AB in test [4] (DOT 22). Moreover, the “FCR to DOT 28 versus challenge control (T2)” value in test [3] (both doses (T4 & T5) and BMD (T3)) is “significantly better than the challenge control”. Further, the “NE Percent Mortality” value in test [4] amounted to 18.00A Percent; in test [4] (listed as BMD) it was 18%.

Consider Clostridium phage vB_CpeP_ACP5, for which, in the test on C. perfringens [1], the “Cocktail MOI” value is given as 0.001 and the “Individual MOI” value came to 0.01. In the test on C. perfringens [2], the “Virulence Index” value turned out to be 0.86.

In the case of Clostridium phage vB_CpeP_VLR28, in the test on C. perfringens [1], the “Cocktail MOI” value is recorded as 0.001 and the “Individual MOI” value was determined as 0.01. The “Virulence Index” value with C. perfringens [2] is given as 0.18.

Turning to Clostridium phage vB_CpeP_MN6171, in the test with C. perfringens [1], the “Cocktail MOI” value came to 0.01 and the “Individual MOI” value turned out to be 0.01. For the same substance, the “Virulence Index” value with C. perfringens [2] is given as 0.19.

Turning to Clostridium phage vB_CpeM_AE3110, in the test with C. perfringens [1], the “Cocktail MOI” value came to 0.01 and the “Individual MOI” value came to 0.1. In addition, in the test on C. perfringens [2], the “Virulence Index” value turned out to be 0.24.

For the origin of these results see patent US20240182869A1 (priority 2021, published 2024).
